Measured values reported in the NIST ThermoML archive (doi:10.1021/je060271a).
± gives the expanded uncertainty stated by the source.

Details: 283.15 K, Liquid, Vibrating tube method

CCCCCC(=O)OCC(COC(=O)CCCCC)(COC(=O)CCCCC)COC(=O)CCCCC [pentaerythritol tetrahexanoate]
Details | mass density [kg/m3]
17954 kPa | 1014.2 ± 1.2
17972 kPa | 1014.2 ± 1.2
17987 kPa | 1014.3 ± 1.2
18002 kPa | 1014.3 ± 1.2
18020 kPa | 1014.4 ± 1.2
18035 kPa | 1014.3 ± 1.2
18050 kPa | 1014.4 ± 1.2
18068 kPa | 1014.4 ± 1.2
18083 kPa | 1014.3 ± 1.2
18098 kPa | 1014.3 ± 1.2
18116 kPa | 1014.5 ± 1.2
18131 kPa | 1014.3 ± 1.2
18146 kPa | 1014.4 ± 1.2
18161 kPa | 1014.3 ± 1.2
18179 kPa | 1014.4 ± 1.2
18195 kPa | 1014.4 ± 1.2
18210 kPa | 1014.5 ± 1.2
18228 kPa | 1014.4 ± 1.2
18243 kPa | 1014.5 ± 1.2
18259 kPa | 1014.6 ± 1.2
18277 kPa | 1014.5 ± 1.2
18292 kPa | 1014.4 ± 1.2
18308 kPa | 1014.5 ± 1.2
18326 kPa | 1014.5 ± 1.2
18341 kPa | 1014.6 ± 1.2
18356 kPa | 1014.6 ± 1.2
18375 kPa | 1014.5 ± 1.2
18391 kPa | 1014.5 ± 1.2
18407 kPa | 1014.6 ± 1.2
18425 kPa | 1014.6 ± 1.2
18441 kPa | 1014.6 ± 1.2
18457 kPa | 1014.6 ± 1.2
18472 kPa | 1014.5 ± 1.2
18491 kPa | 1014.6 ± 1.2
18506 kPa | 1014.6 ± 1.2
18522 kPa | 1014.6 ± 1.2
18541 kPa | 1014.5 ± 1.2
18557 kPa | 1014.7 ± 1.2
18576 kPa | 1014.6 ± 1.2
18592 kPa | 1014.6 ± 1.2
18608 kPa | 1014.7 ± 1.2
18624 kPa | 1014.6 ± 1.2
18643 kPa | 1014.6 ± 1.2
18659 kPa | 1014.7 ± 1.2
18676 kPa | 1014.7 ± 1.2
18695 kPa | 1014.7 ± 1.2
18711 kPa | 1014.7 ± 1.2
18727 kPa | 1014.7 ± 1.2
18746 kPa | 1014.7 ± 1.2
18763 kPa | 1014.8 ± 1.2
18779 kPa | 1014.7 ± 1.2
18796 kPa | 1014.7 ± 1.2
18815 kPa | 1014.9 ± 1.2
18832 kPa | 1014.7 ± 1.2
18848 kPa | 1014.9 ± 1.2
18868 kPa | 1014.8 ± 1.2
18884 kPa | 1014.9 ± 1.2
18901 kPa | 1014.7 ± 1.2
18917 kPa | 1014.9 ± 1.2
18937 kPa | 1014.7 ± 1.2
18954 kPa | 1014.9 ± 1.2
18970 kPa | 1014.9 ± 1.2
18990 kPa | 1014.8 ± 1.2
19005 kPa | 1014.9 ± 1.2
19024 kPa | 1014.9 ± 1.2
19040 kPa | 1014.9 ± 1.2
19057 kPa | 1015 ± 1.2
19075 kPa | 1014.8 ± 1.2
19091 kPa | 1014.9 ± 1.2
19107 kPa | 1014.8 ± 1.2
19126 kPa | 1015 ± 1.2
19142 kPa | 1015 ± 1.2
19161 kPa | 1015 ± 1.2
19177 kPa | 1014.9 ± 1.2
19193 kPa | 1015 ± 1.2
19212 kPa | 1014.9 ± 1.2
19228 kPa | 1014.9 ± 1.2
19245 kPa | 1015.1 ± 1.2
19264 kPa | 1015 ± 1.2
19281 kPa | 1015.1 ± 1.2
19297 kPa | 1014.9 ± 1.2
19313 kPa | 1014.9 ± 1.2
19333 kPa | 1014.9 ± 1.2
19350 kPa | 1015 ± 1.2
19366 kPa | 1015 ± 1.2
19382 kPa | 1015.1 ± 1.2
19402 kPa | 1015 ± 1.2
19418 kPa | 1015.2 ± 1.2
19438 kPa | 1015.1 ± 1.2
19455 kPa | 1015.2 ± 1.2
19471 kPa | 1015.1 ± 1.2
19488 kPa | 1015.1 ± 1.2
19509 kPa | 1015.1 ± 1.2
19525 kPa | 1015.1 ± 1.2
19542 kPa | 1015.1 ± 1.2
19559 kPa | 1015.2 ± 1.2
19579 kPa | 1015.2 ± 1.2
19596 kPa | 1015.1 ± 1.2
19616 kPa | 1015.1 ± 1.2
19633 kPa | 1015.2 ± 1.2
19649 kPa | 1015.3 ± 1.2
19666 kPa | 1015.2 ± 1.2
19686 kPa | 1015.3 ± 1.2
19703 kPa | 1015.3 ± 1.2
19720 kPa | 1015.3 ± 1.2
19741 kPa | 1015.4 ± 1.2
19758 kPa | 1015.3 ± 1.2
19778 kPa | 1015.2 ± 1.2
19796 kPa | 1015.3 ± 1.2
19813 kPa | 1015.3 ± 1.2
19830 kPa | 1015.3 ± 1.2
19851 kPa | 1015.3 ± 1.2
19868 kPa | 1015.3 ± 1.2
19885 kPa | 1015.3 ± 1.2
19906 kPa | 1015.4 ± 1.2
19922 kPa | 1015.4 ± 1.2
19941 kPa | 1015.3 ± 1.2
19957 kPa | 1015.4 ± 1.2
19973 kPa | 1015.4 ± 1.2
19989 kPa | 1015.4 ± 1.2
20008 kPa | 1015.2 ± 1.2
20024 kPa | 1015.4 ± 1.2
20040 kPa | 1015.4 ± 1.2
20059 kPa | 1015.4 ± 1.2
20075 kPa | 1015.4 ± 1.2
20094 kPa | 1015.4 ± 1.2
20110 kPa | 1015.4 ± 1.2
20126 kPa | 1015.5 ± 1.2
20143 kPa | 1015.5 ± 1.2
20162 kPa | 1015.5 ± 1.2
20178 kPa | 1015.4 ± 1.2
20194 kPa | 1015.6 ± 1.2
20213 kPa | 1015.5 ± 1.2
20228 kPa | 1015.5 ± 1.2
20246 kPa | 1015.4 ± 1.2
20262 kPa | 1015.5 ± 1.2
20277 kPa | 1015.6 ± 1.2
20293 kPa | 1015.5 ± 1.2
20312 kPa | 1015.6 ± 1.2
20328 kPa | 1015.6 ± 1.2
20343 kPa | 1015.5 ± 1.2
20362 kPa | 1015.6 ± 1.2
20378 kPa | 1015.6 ± 1.2
20395 kPa | 1015.7 ± 1.2
20410 kPa | 1015.6 ± 1.2
